Laboratory results from patent publication US6281209A, “Fungicidal alkoximinomethyldioxazine derivatives” (Bayer Aktiengesellschaft, priority 1997, dated 2001).
Where two headings read alike, the source gives them in different places.

How the values were obtained:
Plasmopara viticola = assay: Plasmopara Test (Grapevine)/Protective; format: in vivo; conditions: protective, 100 g/ha, evaluated 6 days after inoculation
Protocol: Plasmopara Test (Grapevine)/Protective Solvent: 47 parts by weight of acetone Emulsifier: 3 parts by weight of alkylaryl polyglycol ether To produce a suitable preparation of active compound, 1 part by weight of active compound is mixed with the stated amounts of solvent and emulsifier, and the concentrate is diluted with water to the desired concentration. To test for protective activity, the young plants are sprayed with the preparation of active compound at the stated application rate. After the spray coating has dried on, the plants are inoculated with an aqueous spore suspension of Plasmopara viticola and then remain in an incubation cabin at approximately 20° C. and 100% relative atmospheric humidity for 1 day. The plants are subsequently placed in a greenhouse at approximately 21° C. and approximately 90% relative atmospheric humidity for 5 days. The plants are then moistened and placed in an incubation cabin for 1 day.

Venturia inaequalis = assay: Venturia Test (Apple)/Protective; format: in vivo; conditions: protective, 10 g/ha, evaluated 12 days after inoculation
Protocol: Venturia Test (Apple)/Protective Solvent: 47 parts by weight of acetone Emulsifier: 3 parts by weight of alkylaryl polyglycol ether To produce a suitable preparation of active compound, 1 part by weight of active compound is mixed with the stated amounts of solvent and emulsifier, and the concentrate is diluted with water to the desired concentration. To test for protective activity, young plants are sprayed with the preparation of active compound at the stated application rate. After the spray coating has dried on, the plants are inoculated with an aqueous conidia suspension of the causative organism of apple scab Venturia inaequalis and then remain in an incubation cabin at approximately 20° C. 100% relative atmospheric humidity for 1 day. The plants are then placed in the greenhouse at approximately 21° C. and a relative atmospheric humidity of approximately 90%.

Pyricularia oryzae = format: in vivo; conditions: rice, protective, 750 g/ha, contact time of one day, evaluated 4 days after inoculation
[1] = phys. data (logP), Table 1; format: physicochemical
Leptosphaeria nodorum = assay: Leptosphaeria Nodorum Test (Wheat)/Protective; format: in vivo; conditions: protective, 25 g/ha, evaluated 10 days after inoculation
Protocol: Leptosphaeria Nodorum Test (Wheat)/Protective Solvent: 10 parts by weight of N-methyl-pyrrolidone Emulsifier: 0.6 parts by weight of alkylaryl polyglycol ether To produce a suitable preparation of active compound, 1 part by weight of active compound is mixed with the stated amounts of solvent and emulsifier, and the concentrate is diluted with water to the desired concentration. To test for protective activity, young plants are sprayed with the preparation of active compound at the stated application rate. After the spray coating has dried on, the plants are sprayed with a spore suspension of Leptosphaeria nodorum. The plants remain in an incubation cabin at 20° C. and 100% relative atmospheric humidity for 48 hours.

SMILES	logP ([1]; read-out: logP)	further results
CON=C(C1=NOCCO1)c1ccccc1OC(=O)C=C(C)c1cccc(C(F)(F)F)c1 [Example 1, 2-[(5,6-dihydro-[1,4,2]dioxazin-3-yl)-methoxyiminomethyl]-phenyl 3-(3-trifluoromethylphenyl)-but-2-enoate]	–	efficacy in comparison with the untreated control (Plasmopara viticola): up to 100%; efficacy in comparison with the untreated controls (Venturia inaequalis): up to 100%
CON=C(C1=NOCCO1)c1ccccc1OC(=O)C=C(C)COc1cccc(C(F)(F)F)c1 [Example 3]	–	efficacy in comparison with the untreated control (Pyricularia oryzae): more than 80%
CON=C(C1=NOCCO1)c1ccccc1OC(=O)C=C(C)c1cccc(Br)c1 [Example 4]	3.72	efficacy in comparison with the untreated control (Plasmopara viticola): up to 100%; efficacy in comparison with the untreated controls (Venturia inaequalis): up to 100%; efficacy in comparison with the untreated control (Leptosphaeria nodorum): 70%
CON=C(C1=NOCCO1)c1ccccc1OC(=O)C=C(C)c1cccc(OC)c1 [Example 5]	3.22	efficacy in comparison with the untreated control (Plasmopara viticola): up to 100%; efficacy in comparison with the untreated controls (Venturia inaequalis): up to 100%
CON=C(C1=NOCCO1)c1ccccc1OC(=O)C=C(C)c1ccccc1 [Example 6]	3.22	efficacy in comparison with the untreated control (Plasmopara viticola): up to 100%; efficacy in comparison with the untreated controls (Venturia inaequalis): up to 100%
CON=C(C1=NOCCO1)c1ccccc1OC(=O)C=C(C)c1ccc(C(F)(F)F)cc1 [Example 7]	3.81	efficacy in comparison with the untreated controls (Venturia inaequalis): up to 100%; efficacy in comparison with the untreated control (Pyricularia oryzae): more than 80%
CON=C(C1=NOCCO1)c1ccccc1OC(=O)C=C(C)c1ccc(C)cc1 [Example 8]	3.58	efficacy in comparison with the untreated control (Plasmopara viticola): up to 100%; efficacy in comparison with the untreated controls (Venturia inaequalis): up to 100%; efficacy in comparison with the untreated control (Pyricularia oryzae): more than 80%
CCc1cccc(C(C)=CC(=O)Oc2ccccc2C(=NOC)C2=NOCCO2)c1 [Example 9]	3.91	efficacy in comparison with the untreated control (Plasmopara viticola): up to 100%; efficacy in comparison with the untreated controls (Venturia inaequalis): up to 100%; efficacy in comparison with the untreated control (Pyricularia oryzae): more than 80%
CON=C(C1=NOCCO1)c1ccccc1OC(=O)C=C(C)c1ccc(Br)cc1 [Example 10]	3.78	–
CCOc1ccc(C(C)=CC(=O)Oc2ccccc2C(=NOC)C2=NOCCO2)cc1 [Example 12]	3.57	–
CON=C(C1=NOCCO1)c1ccccc1OC(=O)C=C(C)c1ccc(C)cc1 [Example 13]	–	logP [1]: 4.06
CON=C(C1=NOCCO1)c1ccccc1OC(=O)C=C(C)c1cc(Cl)ccc1Cl [Example 14]	3.93	–
CON=C(C1=NOCCO1)c1ccccc1OC(=O)C=C(C)c1cccc(C)c1 [Example 17]	3.58	–
CON=C(C1=NOCCO1)c1ccccc1OC(=O)C=C(C)c1cccc(Cl)c1 [Example 19]	3.64	–
CON=C(C1=NOCCO1)c1ccccc1OC(=O)C=C(C)c1ccc(F)cc1 [Example 20]	3.28	–
CON=C(C1=NOCCO1)c1ccccc1OC(=O)C=C(C)c1ccc(OC)cc1 [Example 21]	3.19	–
CON=C(C1=NOCC(C)O1)c1ccccc1OC(=O)C=C(C)c1ccc(C(F)(F)F)cc1 (stereo not drawn) [Example 22]	4.02	–
CON=C(C1=NOCC(C)(C)O1)c1ccccc1OC(=O)C=C(C)c1ccc(C(F)(F)F)cc1 [Example 23]	4.23	–
CON=C(C1=NOCCO1)c1ccccc1OC(=O)C=C(C)c1ccccc1OC(C)C [Example 24]	3.87	–
CCOc1ccccc1C(C)=CC(=O)Oc1ccccc1C(=NOC)C1=NOCCO1 [Example 25]	3.63	–
CCCOc1ccccc1C(C)=CC(=O)Oc1ccccc1C(=NOC)C1=NOCCO1 [Example 26]	3.98	–
CON=C(C1=NOCCO1)c1ccccc1OC(=O)C=C(C)c1ccccc1F [Example 29]	3.25	–
CON=C(C1=NOCCO1)c1cc(C)ccc1OC(=O)C=C(C)c1cccc(Cl)c1 [Example 32]	3.9	–
CON=C(C1=NOCCO1)c1ccccc1OC(=O)C=C(C)c1ccccc1OC [Example 42]	3.28	–
CON=C(C1=NOCCO1)c1ccccc1OC(=O)C=C(C)c1ccccc1C(F)(F)F [Example 43]	3.58	–
CON=C(C1=NOCCO1)c1ccccc1OC(=O)C=C(C)c1cc(C)ccc1C [Example 44]	3.85	–
CON=C(C1=NOCCO1)c1ccccc1OC(=O)C=C(C)c1ccccc1Br [Example 45]	3.58	–
CON=C(C1=NOCCO1)c1ccccc1OC(=O)C=C(C)c1ccc(Cl)nc1 [Example 46]	2.75	–
CON=C(C1=NOCCO1)c1ccccc1OC(=O)C=C(C)c1ccccc1C [Example 47]	3.48	–
